Ten molecules from patent publication US10908147B2, “Methods of identifying modulators of olfactory receptors” (priority 2013, dated 2021) can be followed below.

“Also recorded” adds a separate entry of the source. Like-named read-outs stand apart in the source and are kept apart here.

The target of test [1] is T1, olfactory receptor OR240 (also OR7D4) (Homo sapiens, UniProt Q8NG98).
T1 construct: expressed in transfected cells; host or cells: cultured human taste papillae (HBO) cells, Lipofectamine 2000, transient
T1 sequence (Q8NG98 1-312): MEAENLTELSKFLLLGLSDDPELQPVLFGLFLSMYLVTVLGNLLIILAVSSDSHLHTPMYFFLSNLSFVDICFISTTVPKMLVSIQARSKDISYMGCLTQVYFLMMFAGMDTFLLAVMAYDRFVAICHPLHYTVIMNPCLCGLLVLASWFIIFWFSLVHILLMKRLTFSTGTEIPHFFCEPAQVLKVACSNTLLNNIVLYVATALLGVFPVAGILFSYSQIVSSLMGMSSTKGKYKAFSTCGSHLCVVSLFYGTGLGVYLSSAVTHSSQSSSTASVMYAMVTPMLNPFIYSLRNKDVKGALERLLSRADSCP
In words: Calcium imaging of HBO cells transiently transfected with OR7D4. The format is cell-based. The settings on record: HBO cells transfected with OR7D4/OR240 plus chaperone DNA (RTP1S and M3); 30 or 100 micromolar.

The test system of test [2] is olfactory receptor ORS6 (also Olfr544). Briefly: Calcium imaging of HBO cells transiently transfected with ORS6. The test is classed as cell-based, mouse. The note with it: HBO cells transfected with ORS6 plus chaperone DNA (RTP1S and M3); 30 or 100 micromolar.
Test [3] deals with cultured taste papillae cells obtained from M129 mice. In words: Calcium imaging of cultured wild mouse (m129) taste papillae cells. The settings on record: fura-2 calcium imaging; odorants at optimal concentration 100 uM; wild (m129) mouse taste cell cultures. The format is cell-based. The protocol: (§1) Circumvallate and foliate papillae obtained from wild (m129), I7, M71 and Eugenol transgenic mice were isolated according to previously published procedure (Ozdener et al., 2006, cited above). Briefly, mouse taste papillae were removed by injecting the mixture of enzyme (pronase, 1 mg/ml Sigma and elastase 1 mg/ml Sigma) and immediately placed into an isolation solution followed by enzymatic digestion. Digested taste papillae tissue were then gently minced with a surgical razor and seeded on collagen type-1 coated coverslips and incubated at 36° C. in a humidified environment containing 5% CO2.
Changes in intracellular calcium levels in response to stimuli were measured. Cultured human fungiform and mice taste papillae cells were seeded on 15 mm coverslips. Cells were loaded with […] Fura-2 AM (Molecular Probes Inc.) in 10 mg/mL Pluronic® F127 (Molecular Probes Inc.) in modified Ringer solution for 1 hour at 36° C. Individual odors, bitter mixture [phenylthiocarbamide (PTC, 2 mM) and Denatonium (2 mM), Salicin (5 mM)]; and Mix A [cAMP-producing odors in rat biochemical assays (Breer and Boekhoff, 1991, Chem. Senses, 16(1): 19-29, and Restrepo et al., 1993, J. Gen. Physiol., 102:907-924); both of which are incorporated herein by reference] (100 mM): hedione, geraniol, phenylethyl alcohol, citralva, citronellal, and eugenol,]; and Mix B [IP3-producing odors in rat biochemical assays (Breer and Boekhoff, 1991 and Restrepo et al 1993)] (100 mM): lyral, lilial, triethylamine, ethyl vanillin, isovaleric acid, and phenylethyl amine]) was diluted in Ringer, which was prepared with pH adjusted to 7.2 and osmolality adjusted to 300 mmol/kg. A coverslip was placed into a p4 chamber system with the delivery and waste pipes attached to the chamber. […] Following image acquisition, regions of interest (ROIs) on the cells along with a background control region were selected to be measured for fluorescence ratios and intensity values. […] Ratio data for the cells were subsequently analyzed on Excel to determine which cells had responded with a significant change in intracellular calcium. […]

Test [4] relates to cultured taste papillae cells obtained from mOR-M71-GFP ("M71") mice. In words: Calcium imaging of cultured taste papillae cells from mOR-M71-GFP mice. The format is cell-based. The note with it: fura-2 calcium imaging; odorants at optimal concentration 100 uM; mOR-M71-GFP mouse taste cell cultures. The protocol:
as §1
(§2) Changes in intracellular calcium levels in response to stimuli were measured. Cultured human fungiform and mice taste papillae cells were seeded on 15 mm coverslips. Cells were loaded with […] Fura-2 AM (Molecular Probes Inc.) in 10 mg/mL Pluronic® F127 (Molecular Probes Inc.) in modified Ringer solution for 1 hour at 36° C. […] Following image acquisition, regions of interest (ROIs) on the cells along with a background control region were selected to be measured for fluorescence ratios and intensity values. […] Ratio data for the cells were subsequently analyzed on Excel to determine which cells had responded with a significant change in intracellular calcium. […]

Test [5] relates to immortalized human fungiform taste papillae (Ulduz) cells. Briefly: Odor response of immortalized human fungiform taste papillae (Ulduz) cells. The test is classed as cell-based. As to the method:
(§3) Changes in intracellular calcium levels in response to stimuli were measured. Cultured human fungiform and mice taste papillae cells were seeded on 15 mm coverslips. Cells were loaded with […] Fura-2 AM (Molecular Probes Inc.) in 10 mg/mL Pluronic® F127 (Molecular Probes Inc.) in modified Ringer solution for 1 hour at 36° C. Individual odors, bitter mixture [phenylthiocarbamide (PTC, 2 mM) and Denatonium (2 mM), Salicin (5 mM)]; and Mix A [cAMP-producing odors in rat biochemical assays (Breer and Boekhoff, 1991, Chem. Senses, 16(1): 19-29, and Restrepo et al., 1993, J. Gen. Physiol., 102:907-924); both of which are incorporated herein by reference] (100 mM): hedione, geraniol, phenylethyl alcohol, citralva, citronellal, and eugenol,]; and Mix B [IP3-producing odors in rat biochemical assays (Breer and Boekhoff, 1991 and Restrepo et al 1993)] (100 mM): lyral, lilial, triethylamine, ethyl vanillin, isovaleric acid, and phenylethyl amine]) was diluted in Ringer, which was prepared with pH adjusted to 7.2 and osmolality adjusted to 300 mmol/kg. A coverslip was placed into a p4 chamber system with the delivery and waste pipes attached to the chamber. This allowed for a stable and constant flow of liquid in and out of the chamber. The cells were visualized with an inverted florescence microscope using an excitation wavelength of 380 nm. Stimulus selection and delivery, focusing, and image acquisition were done using PTI software. Following image acquisition, regions of interest (ROIs) on the cells along with a background control region were selected to be measured for fluorescence ratios and intensity values. Cultured taste papillae cells were first washed for 1-3 min with Ringer, and then stimuli delivery was initiated. Each stimulus was delivered for 30 sec-1 min followed by an approximately 2 min wash out period with Ringer. Ratio data for the cells were subsequently analyzed on Excel to determine which cells had responded with a significant change in intracellular calcium. After calcium imaging, coverslips were fixed with 4% PFA for 10 min and washed 3× with PBS.
In a similar manner, immortalized human fungiform taste papillae (Ulduz) cells, responded to receptor specific odors, heptaldehyde, acetophenone, methyl cinnamon, eugenol and lyral.

In test [6] the test system is cultured fungiform taste papillae (HBO) cells obtained from human tongue. Briefly: Calcium imaging of cultured human fungiform taste papillae (HBO) cells. The format is cell-based. The note with it: fura-2 calcium imaging, odorants at optimal concentration 100 uM. As to the method:
The human fungiform papillae cells were cultured according to published protocols (Ozdener et al., Chem Senses. 2006 March; 31(3): 279-90; Ozdener et al., In Vitro Cellular & Developmental Biology—Animal. September 2011, 47(8): 513-14; each of which is incorporated herein by reference). Briefly, human fungiform taste papillae were removed and immediately placed into an isolation solution [26 mM NaHCO3, 2.5 mM NaH2PO4, 20 mM glucose, 65 mM NaCl, 20 mM KCl, and 1 mM ethylenediaminetetraacetic acid (EDTA)] followed by enzymatic digestion with pronase E and elastase. Digested fungiform papillae were then gently minced with a surgical razor and seeded on collagen type-1 coated coverslips and incubated at 36° C. in a humidified environment containing 5% CO2. The human fungiform taste papillae were cultured in Iscove's Modified Dulbecco's medium containing 10% fetal bovine serum, 1:5 ratio of MCDB 153, and a triple cocktail of antibiotics (100 U/mL/100 μg/mL, penicillin/streptomycin, and 0.5 μg/mL fungizone). Human fungiform taste papillae cells have been maintained in culture for a period of more than 1 year without loss of viability and with retention of the molecular and biochemical properties of acutely isolated taste cells.
as §3

Test [7] relates to cultured taste papillae cells obtained from mOR-EG-GFP ("mEUG") mice. Briefly: Calcium imaging of cultured taste papillae cells from mOR-EG-GFP mice. The test is classed as cell-based. The note with it: fura-2 calcium imaging; odorants at optimal concentration 100 uM; mOR-EG-GFP mouse taste cell cultures. As to the method:
as §1, §2

For `C[C@@]12CCC[C@H]1[C@@H]1CC[C@H]3CC(=O)CC[C@]3(C)[C@H]1CC2` [Androstanone], the “calcium response to receptor specific odor” value in test [1] was “response occurred”.

On to `O=C(O)CCCCCCCC(=O)O` [Nonanedionic acid], for which, in test [2], the “calcium response to receptor specific odor” value was “response occurred”. As to `CC(=O)c1ccccc1` [acetophenone], the “response to stimulus (change in intracellular calcium)” value was “responded; also recorded: sensitive” in test [3] and “exhibited a response; also recorded: respond; also recorded: responsive” in test [4]. In addition, in test [5], the “response to receptor specific odor” value is given as “respond”. Moreover, the “response to stimulus (change in intracellular calcium [Ca2+]i)” value in test [6] was “sensitive”. In the case of `O=Cc1ccccc1` [benzaldehyde], the “response to stimulus (change in intracellular calcium)” value in test [3] is on record as “responded; also recorded: sensitive”; in test [4] it was “respond”. As to `O=c1ccc2ccccc2o1` [coumarin], in test [6], the “response to stimulus (change in intracellular calcium [Ca2+]i)” value is reported as “sensitive”.

`C=CCc1ccc(O)c(OC)c1` [eugenol]: the “response to stimulus (change in intracellular calcium)” value in test [3] is reported as “sensitive”; in test [7], “respond; also recorded: responsive”. In addition, the “response to receptor specific odor” value in test [5] is listed as “respond”. Besides, the “response to stimulus (change in intracellular calcium [Ca2+]i)” value in test [6] is listed as “sensitive”. For `CCCCCCC=O` [heptanal], the “response to receptor specific odor” value in test [5] (listed as heptaldehyde) is “respond”. Besides, the “response to stimulus (change in intracellular calcium [Ca2+]i)” value in test [6] is recorded as “sensitive”. With `CCCCCC(=O)O` [hexanoic acid], in test [6], the “response to stimulus (change in intracellular calcium [Ca2+]i)” value is listed as “sensitive”. Consider `CC(C)(O)CCCC1=CCC(C=O)CC1` (stereo not shown) [lyral], for which, in test [5], the “response to receptor specific odor” value is on record as “respond”. The “response to stimulus (change in intracellular calcium [Ca2+]i)” value in test [6] is listed as “sensitive”.

On to `COC(=O)/C=C/c1ccccc1` [methyl cinnamon], for which, in test [5], the “response to receptor specific odor” value is “respond”.
